Measurements: ChEMBL document CHEMBL5512696, “Discovery of a Novel ASM Direct Inhibitor with a 1,5-Diphenyl-pyrazole Scaffold and Its Antidepressant Mechanism of Action” (J Med Chem, 2024)
Active and inactive are the calls of the source.

Experiments:
Format in all cases: functional, organism-based
Details in all cases: time 2.0 weeks
[1] = system: Mus musculus; assay: Antidepressant activity in ICR mouse model of chronic unpredictable mild stress assessed as downregulation of neuronal apoptosis by measuring increase in BDNF protein level in hippocampus at 12 mg/kg, ip administered once a day for 1 week post 8 week of chronic unpredictable mild stress and measured after 1 week by Western blot analysis
[2] = system: Mus musculus; assay: (§1) Antidepressant activity in ICR mouse model of chronic unpredictable mild stress assessed as reduction in sphingosine-1-phosphate level in cerebral cortex at 12 mg/kg, ip administered once a day for 1 week post 8 week of chronic unpredictable mild stress and measured after 1 week by ELISA
[3] = system: Mus musculus; assay: Antidepressant activity in ICR mouse model of chronic unpredictable mild stress assessed as reduction in sphingosine-1-phosphate level in hippocampus at 12 mg/kg, ip administered once a day for 1 week post 8 week of chronic unpredictable mild stress and measured after 1 week by ELISA
[4] = system: Mus musculus; assay: Antidepressant activity in ICR mouse model of chronic unpredictable mild stress assessed as reduction in sphingomyelin level in cerebral cortex at 12 mg/kg, ip administered once a day for 1 week post 8 week of chronic unpredictable mild stress and measured after 1 week by ELISA
[5] = system: Mus musculus; assay: as §1, with “oxidative stress by measuring reduction in MDA” for “sphingosine-1-phosphate”
[6] = system: Mus musculus; assay: Antineuroinflammatory activity in ICR mouse model of chronic unpredictable mild stress assessed as reduction in TNFalpha level in serum at 12 mg/kg, ip administered once a day for 1 week post 8 week of chronic unpredictable mild stress and measured after 1 week by ELISA
[7] = system: Mus musculus; assay: Antineuroinflammatory activity in ICR mouse model of chronic unpredictable mild stress assessed as reduction in IL-1beta level in serum at 12 mg/kg, ip administered once a day for 1 week post 8 week of chronic unpredictable mild stress and measured after 1 week by ELISA
[8] = system: Mus musculus; assay: Antineuroinflammatory activity in ICR mouse model of chronic unpredictable mild stress assessed as reduction in IL-6 level in serum at 12 mg/kg, ip administered once a day for 1 week post 8 week of chronic unpredictable mild stress and measured after 1 week by ELISA
[9] = system: Mus musculus; assay: In vivo inhibition of ASM in ICR mouse model of chronic unpredictable mild stress assessed as increase in 5-HT uptake in hippocampus at 12 mg/kg, ip administered once a day for 1 week post 8 week of chronic unpredictable mild stress and measured after 1 week by ELISA

CNCCC(Oc1ccc(C(F)(F)F)cc1)c1ccccc1 (centres undefined)
active: Activity [1] | Activity [2] | Activity [3] | Activity [4] | Activity [5] | Activity [6] | Activity [7] | Activity [8] | inhibition [9]
